Results from US20240174598A1, “COMPOUNDS FOR THE TREATMENT OF DISORDERS AND SALTS AND POLYMORPHS THEREOF” (OccuRx Pty Ltd, priority 2021, published 2024).
Structures can show the parent of a compound that is named as a salt.

Key:
[1] = Dynamic vapor sorption (DVS) analysis; format: physicochemical; conditions: for stability to humidity: over a wide range of humidity
Protocol: Approximately, 10-20 mg of sample was placed into a mesh vapor sorption balance pan and loaded into a DVS Intrinsic dynamic vapor sorption balance by Surface Measurement Systems. The sample was subjected to a ramping profile from 40-90% relative humidity (RH) at 10% increments, maintaining the sample at each step until a stable weight had been achieved (dm/dt 0.004%, minimum step length 30 minutes, maximum step length 500 minutes) at 25° C. After completion of the sorption cycle, the sample was dried using the same procedure to 0% RH and then a second sorption cycle back to 40% RH. Two cycles were performed. The weight change during the sorption/desorption cycles were plotted, allowing for the hygroscopic nature of the sample to be determined. XRPD analysis was then carried out on any solid retained.

[2] = Intrinsic dissolution studies (disc, Wood's die); format: physicochemical
Protocol: Discs for the intrinsic dissolution evaluation were prepared by weighing approximately 175 mg of each batch and compressing with a small hydraulic press in a 13 mm Wood's die for 3 minutes at a force of approximately 3000 lbs. The surface of each disc was examined carefully to ensure that it was uniform, smooth and free from loose powder.
The dissolution experiments were conducted by attaching the Wood's die containing the disc, to the matching shafts on an Erweka DT6 dissolution apparatus. The discs were lowered into the media (500 mL at 37° C.) and immediately rotated at 100 rpm. Duplicate samples of the media (0.2 mL) were removed prior to immersion of the disc and then at 2, 5, 10, 15, 20, 25, 30, 60 and 90 minutes after the experiment was initiated. Sampling was discontinued if substantial dissolution was visible or if the disc disintegrated in the media.
At the end of each experiment, the discs were removed from the media and examined to ensure that the surface of the discs remained uniform and to qualitatively assess the extent of dissolution over the course of the experiment. Media samples were centrifuged (10000 rpm×3 min) and a small aliquot (50 μL) removed, 5-fold diluted with 50% aqueous acetonitrile prior to HPLC analysis.

Row | water uptake corresponding to the mass increase ([1]; at 90% RH) | mass increase by dynamic vapor sorption ([1]; at 90% Relative Humidity (RH)) [wt. %] | stability to humidity [1] | dissolution profile compared to the free acid of the compound of Formula (I) ([2]; FaSSIF media, 37° C. (FIG. 12)) | dissolution profile compared to the free acid of the compound of Formula (I) ([2]; PBS media, 37° C. (FIG. 13)) | hygroscopicity by dynamic vapor sorption/desorption analysis [1] | water uptake by dynamic vapor sorption ([1]; at 90% RH) | Structure (SMILES)
1 | 1.3 equiv. of water | 4.2 | stable over a wide range of humidity | superior | superior | – | – | COc1cc(/C=C/C(=O)Nc2ccccc2C(=O)O)ccc1OC(F)F [Crystalline Salt A]
2 | – | – | stable over a wide range of humidity | superior | equivalent, if not better | non-hygroscopic | negligible water uptake | COc1cc(/C=C/C(=O)Nc2ccccc2C(=O)O)ccc1OC(F)F [Crystalline Salt B]
